This is an account of results in paper PMC10766610, “DCAF1-based PROTACs with activity against clinically validated targets overcoming intrinsic- and acquired-degrader resistance” (Nature Communications, 2024).

Assay [1] addresses T1, BRD9 (Homo sapiens, UniProt Q9H8M2).
T1 sequence (Q9H8M2 1-597): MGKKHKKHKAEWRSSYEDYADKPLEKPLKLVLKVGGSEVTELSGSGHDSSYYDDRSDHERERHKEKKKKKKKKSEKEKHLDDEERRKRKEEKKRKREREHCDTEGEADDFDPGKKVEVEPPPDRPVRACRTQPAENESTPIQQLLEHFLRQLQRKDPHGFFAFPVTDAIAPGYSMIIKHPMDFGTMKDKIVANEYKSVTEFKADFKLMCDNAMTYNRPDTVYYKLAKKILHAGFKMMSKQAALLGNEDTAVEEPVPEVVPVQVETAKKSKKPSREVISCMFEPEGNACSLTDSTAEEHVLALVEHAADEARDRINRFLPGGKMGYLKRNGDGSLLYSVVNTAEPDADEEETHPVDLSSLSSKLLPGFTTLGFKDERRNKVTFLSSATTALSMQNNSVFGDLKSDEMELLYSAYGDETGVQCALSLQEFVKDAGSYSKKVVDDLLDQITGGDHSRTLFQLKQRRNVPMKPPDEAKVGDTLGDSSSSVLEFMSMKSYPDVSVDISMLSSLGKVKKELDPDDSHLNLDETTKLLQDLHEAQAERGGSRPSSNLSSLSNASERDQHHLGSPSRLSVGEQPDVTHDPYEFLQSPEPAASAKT
Description: Capillary western of BRD9 in 768-O cells. It counts as cell-based. The note with it: 768-O cells (lacking VHL), 2 h. The method, then:
Protein peaks were analyzed using Compass for Simple Western version 5.0.1 (ProteinSimple), area under the curve for both α-tubulin ([…]) and BRD9 (90 kDa) per capillary was extracted and BRD9 area was normalized to α-tubulin area on a per-capillary basis before each sample was normalized to the DMSO for each run of three triplicates.

The target of assay [2] is T2, BRD7 (Homo sapiens, UniProt Q9NPI1).
T2 sequence (Q9NPI1 1-651): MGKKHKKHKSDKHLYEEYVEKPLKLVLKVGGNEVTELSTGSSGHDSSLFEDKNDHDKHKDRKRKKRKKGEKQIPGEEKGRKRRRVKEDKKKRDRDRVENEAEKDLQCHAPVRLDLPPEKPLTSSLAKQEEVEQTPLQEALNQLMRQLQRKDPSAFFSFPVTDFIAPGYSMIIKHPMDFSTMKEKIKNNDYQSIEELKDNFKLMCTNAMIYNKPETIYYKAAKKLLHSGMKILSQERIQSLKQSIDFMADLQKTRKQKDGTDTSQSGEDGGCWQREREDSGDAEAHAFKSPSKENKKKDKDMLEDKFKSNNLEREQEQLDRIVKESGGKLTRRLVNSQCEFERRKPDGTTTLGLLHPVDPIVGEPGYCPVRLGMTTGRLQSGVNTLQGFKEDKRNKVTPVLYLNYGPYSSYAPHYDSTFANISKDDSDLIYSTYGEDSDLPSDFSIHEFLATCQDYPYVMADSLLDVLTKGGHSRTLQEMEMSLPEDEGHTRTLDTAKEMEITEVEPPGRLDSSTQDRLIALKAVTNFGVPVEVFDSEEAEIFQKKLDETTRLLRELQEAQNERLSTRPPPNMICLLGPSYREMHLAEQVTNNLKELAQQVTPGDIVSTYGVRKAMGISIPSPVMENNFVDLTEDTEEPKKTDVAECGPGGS
Description: BRD7-HiBiT protein abundance luminescence assay in HEK293 cells. Background: HiBiT is a short tag that completes a luciferase, so light tracks the accessible tagged protein.
Description: HEK293/BRD9-HiBiT pools (PROMEGA # CS3023120) and HEK293/BRD7-HiBiT pools (PROMEGA # CS3023124) were purchased from Promega. We performed clonal selection for HEK293/BRD9-HiBiT cell line using single-cell sorting and screening for HiBiT expression using Nano-Glo HiBiT Lytic Detection System (Promega # N3030). The HEK293/BRD9-HiBiT clone and HEK293/BRD7-HiBiT pool to perform standard HiBiT assays.

Assay [3] deals with T1, BRD9. Description: Rescue of DBr-1 mediated BRD9 degradation by co-treatment, BRD9-HiBiT HEK293 cells. In kind it is cell-based. More on the design: host or cells: HEK293/BRD9-HiBiT knock-in; clone and BRD9-HiBiT/CAS9/FF clone. The note with it: (13) 1 µM, OICR8268 10 µM, BI-9564 10 µM. The method, then:
Supplementary figure 4. Competition experiments with DBr-1 and DBr-1-N […]
a) BRD9-HiBiT signal detection of samples pretreated with either DMSO, 10µM OICR-8268, 1µM […]
Data represents average ± standard deviation from n=3 replicates. DC50 values and […]
maximal observed degradation are shown below. […]
b) Cell titer Glow assay of BRD9 HiBiT cells. Cells pretreated with either DMSO, 10µM OICR-8268, […]
Data represents average ± standard deviation from n=3 replicates.
Source data are provided as a Source Data file

Molecules are shown by their SMILES.

As to `COc1cc(-c2cn(C)c(=O)c3cnccc23)c(OC)cc1CN1CCC(OCCCCCC(=O)N2CCN(c3ccc4c(NCCN)nc(C5(c6ccc(Cl)cc6)CCCCC5)nc4c3)CC2)CC1` [DBr-1], the DC50 in assay [1] was 1040 nM; in assay [2] (read-out: rel. DC50 (BRD7), 2 h) it was 360 nM. For the same molecule, the “maximal observed degradation (BRD7), % in brackets” value in assay [2] (2 h) is given as 65%.

`CC(=O)N1CCN(c2ccc3c(NCCN)nc(C4(c5ccc(Cl)cc5)CCCCC4)nc3c2)CC1` [compound 13]: the “effect of co-treatment on DBr-1 mediated BRD9 degradation” value in assay [3] is “did not affect the degradation efficacy of DBr-1”.
